One data set concerns the target T1, Peroxiredoxin-1 (Homo sapiens, UniProt Q06830).
T1 sequence (Q06830 whole entry): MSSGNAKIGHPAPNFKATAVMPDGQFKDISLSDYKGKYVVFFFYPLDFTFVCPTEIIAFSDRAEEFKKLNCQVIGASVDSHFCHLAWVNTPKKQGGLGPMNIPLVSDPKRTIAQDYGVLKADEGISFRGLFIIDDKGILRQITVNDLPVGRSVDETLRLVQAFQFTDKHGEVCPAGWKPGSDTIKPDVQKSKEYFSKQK
The data set can be described thus: Inhibition of recombinant PRDX1 (unknown origin) using H2O2 as substrate preincubated for 0.5 hrs followed by substrate addition by TRX-TrxR-NADPH coupling assay.

The subject of a further data set is HCT-116. In words: Inhibition of cell viability in human HCT-116 cells incubated for 72 hrs by Cell Titer Glo assay. The class given is functional, cell-based. As to conditions: HCT-116, 72 h.
In data set [1] the test system is SW-620. The data set can be described thus: Inhibition of cell viability in human SW620 cells incubated for 72 hrs by Cell Titer Glo assay. It counts as functional, cell-based. As to conditions: SW-620, 72 h.
Data set [2] relates to SW-620. The data set can be described thus: cells. As to conditions: Homo sapiens, SW-620, 48 h, read-out: Activity.
Description: Induction of apoptosis in human SW620 cells assessed as viable cells at 2 uM incubated for 48 hrs by Annexin V-FITC/PI staining based flow cytometry (Rvb = 90.7 %)
Data set [3] can be described thus: Acute toxicity in C57BL/[…] 6J mouse assessed as animal death at 20 mg/kg, ip measured for 2 days. The settings on record: in vivo, 48 h, time 2 day. The class given is organism-based.
Data set [4] is described as follows: Acute toxicity in C57BL/[…] 6J mouse assessed as pathological change in liver at 20 mg/kg, ip measured for 2 weeks by H and E staining based analysis. It counts as organism-based. As to conditions: in vivo, 336 h.
The nature of data set [5]: Acute toxicity in C57BL/[…] 6J mouse assessed as pathological change in kidney at 20 mg/kg, ip measured for 2 weeks by H and E staining based analysis. It counts as organism-based. The settings on record: in vivo, 336 h.
The nature of data set [6]: Acute toxicity in C57BL/[…] 6J mouse assessed as pathological change in heart at 20 mg/kg, ip measured for 2 weeks by H and E staining based analysis. The class given is organism-based. The settings on record: in vivo, 336 h.
In data set [7] the test system is SW-620. The data set can be described thus: cells. The settings on record: Homo sapiens, SW-620, 48 h, read-out: Activity. This is another data set of the same source.
Description: Induction of apoptosis in human SW620 cells assessed as viable cells at 1 uM incubated for 48 hrs by Annexin V-FITC/PI staining based flow cytometry (Rvb = 90.7 %)
Data set [8] can be described thus: Acute toxicity in C57BL/[…] 6J mouse assessed as pathological change in spleen at 20 mg/kg, ip measured for 2 weeks by H and E staining based analysis. The settings on record: in vivo, 336 h. The class given is organism-based.
Data set [9] concerns SW-620. The data set can be described thus: cells. As to conditions: Homo sapiens, SW-620, 48 h, read-out: Activity. This is another data set of the same source.
Description: Induction of apoptosis in human SW620 cells assessed as viable cells at 0.5 uM incubated for 48 hrs by Annexin V-FITC/PI staining based flow cytometry (Rvb = 90.7 %)
Data set [10] can be described thus: Toxicity in BALB/c nude mouse xenografted with human SW620 cells assessed as body weight loss at 2 mg/kg, ip qd for 7 days. The class given is organism-based, SW-620. The settings on record: in vivo, 168 h, time 7 day.
For data set [11], the system named is SW-620. In words: Antitumor activity against human SW620 cells xenografted in BALB/c nude mouse at 2 mg/kg, ip qd for 16 days relative to control. It counts as functional. The settings on record: SW-620, 384 h, time 16 day, read-out: TGI.

Consider 23 compounds from ChEMBL document CHEMBL5543168, “Discovery of Urea Derivatives of Celastrol as Selective Peroxiredoxin 1 Inhibitors against Colorectal Cancer Cells” (J Med Chem, 2024).

pIC50: −log10 of the molar value. Bounds are passed on as bounds.

As to `COC(=O)[C@H](C)NC(=O)N[C@]1(C)CC[C@]2(C)CC[C@]3(C)C4=CC=C5C(=CC(=O)C(O)=C5C)[C@]4(C)CC[C@@]3(C)[C@@H]2C1`, the figures for the pIC50 on Peroxiredoxin-1, in the data set with HCT-116 and with SW-620 [1] were 6.31, 6.10 and 6.48, respectively.
Turning to `COC(=O)[C@H](CO)NC(=O)N[C@]1(C)CC[C@]2(C)CC[C@]3(C)C4=CC=C5C(=CC(=O)C(O)=C5C)[C@]4(C)CC[C@@]3(C)[C@@H]2C1`, the values for the pIC50 on Peroxiredoxin-1, with HCT-116 and in the data set with SW-620 [1] were 6.33, 6.13 and 6.19, respectively.
Turning to `CC1=C(O)C(=O)C=C2C1=CC=C1[C@@]2(C)CC[C@@]2(C)[C@@H]3C[C@](C)(NC(=O)N[C@@H](C)C(N)=O)CC[C@]3(C)CC[C@]12C`, the pIC50 on Peroxiredoxin-1 is 6.51; with HCT-116, 6.25; in the data set on SW-620 [1], 6.38.
The like results for `CC1=C(O)C(=O)C=C2C1=CC=C1[C@@]2(C)CC[C@@]2(C)[C@@H]3C[C@](C)(NC(=O)NC(CO)(CO)CO)CC[C@]3(C)CC[C@]12C` were, in that order, 6.30, 5.60 and 5.96.
In the same order, the values of `COC(=O)[C@@H](NC(=O)N[C@]1(C)CC[C@]2(C)CC[C@]3(C)C4=CC=C5C(=CC(=O)C(O)=C5C)[C@]4(C)CC[C@@]3(C)[C@@H]2C1)C(C)C` are 6.34, 6.47 and 6.72.
The like results for `CC1=C(O)C(=O)C=C2C1=CC=C1[C@@]2(C)CC[C@@]2(C)[C@@H]3C[C@](C)(NC(=O)NC4(C(=O)O)COC4)CC[C@]3(C)CC[C@]12C` were, in that order, less than 4.70, less than 4.70 and less than 4.70.
As to `COC(=O)[C@H](CCSC)NC(=O)N[C@]1(C)CC[C@]2(C)CC[C@]3(C)C4=CC=C5C(=CC(=O)C(O)=C5C)[C@]4(C)CC[C@@]3(C)[C@@H]2C1`, the pIC50 at Peroxiredoxin-1 was 6.27; with HCT-116, 5.74; in the data set with SW-620 [1], 5.85.
Consider `CC1=C(O)C(=O)C=C2C1=CC=C1[C@@]2(C)CC[C@@]2(C)[C@@H]3C[C@](C)(C(=O)O)CC[C@]3(C)CC[C@]12C` [CELASTROL], for which, in the data set with SW-620 [2], the viability at 2 µM was 27.4%. The Activity result in data set [3], in data set [4], in [5], in data set [6], in data set [8] and in data set [10] was “Toxic” in each case. Also, the values for the pIC50 in the data set with HCT-116 and in the data set with SW-620 [1] were 5.85 and 6.17, respectively. Also, the viability at 1 µM in the data set with SW-620 [7] was 84.2%. The viability at 0.5 µM in the data set on SW-620 [9] was 87.4%. In the data set with SW-620 [11], the inhibition in vivo at 2 mg/kg turned out to be 28%.
As to `COC(=O)[C@@H](NC(=O)N[C@]1(C)CC[C@]2(C)CC[C@]3(C)C4=CC=C5C(=CC(=O)C(O)=C5C)[C@]4(C)CC[C@@]3(C)[C@@H]2C1)[C@@H](C)O`, the pIC50 on Peroxiredoxin-1 was 6.31; with HCT-116, 6.10; with SW-620 [1] it was 6.48.
In the same order, the values of `COC(=O)[C@H](CCCCNC(=O)OC(C)(C)C)NC(=O)N[C@]1(C)CC[C@]2(C)CC[C@]3(C)C4=CC=C5C(=CC(=O)C(O)=C5C)[C@]4(C)CC[C@@]3(C)[C@@H]2C1` are 6.40, 6.39 and 6.48.
As to `CC1=C(O)C(=O)C=C2C1=CC=C1[C@@]2(C)CC[C@@]2(C)[C@@H]3C[C@](C)(NC(=O)NCCOCCO)CC[C@]3(C)CC[C@]12C`, the pIC50 is 6.39 on Peroxiredoxin-1, 6.00 with HCT-116 and 6.10 with SW-620 [1].
In the same order, the values of `COC(=O)CC[C@H](NC(=O)N[C@]1(C)CC[C@]2(C)CC[C@]3(C)C4=CC=C5C(=CC(=O)C(O)=C5C)[C@]4(C)CC[C@@]3(C)[C@@H]2C1)C(=O)OC` are 6.43, 6.24 and 6.46.
In the same order, the values of `CC1=C(O)C(=O)C=C2C1=CC=C1[C@@]2(C)CC[C@@]2(C)[C@@H]3C[C@](C)(NC(=O)N[C@H]4C[C@H](CO)[C@H](O)C4)CC[C@]3(C)CC[C@]12C` are 6.34, 5.51 and 5.68.
The like results for `COC(=O)[C@H](Cc1c[nH]c2ccccc12)NC(=O)N[C@]1(C)CC[C@]2(C)CC[C@]3(C)C4=CC=C5C(=CC(=O)C(O)=C5C)[C@]4(C)CC[C@@]3(C)[C@@H]2C1` were, in that order, 6.47, 6.25 and 6.51.
`COC(=O)[C@@H]1C[C@@H](O)CN1C(=O)N[C@]1(C)CC[C@]2(C)CC[C@]3(C)C4=CC=C5C(=CC(=O)C(O)=C5C)[C@]4(C)CC[C@@]3(C)[C@@H]2C1`: the results for the pIC50 on Peroxiredoxin-1, in the data set with HCT-116 and in the data set with SW-620 [1] were 6.44, 6.36 and 6.59, respectively.
With `COC(=O)[C@@H]1CCCN1C(=O)N[C@]1(C)CC[C@]2(C)CC[C@]3(C)C4=CC=C5C(=CC(=O)C(O)=C5C)[C@]4(C)CC[C@@]3(C)[C@@H]2C1`, the pIC50 on Peroxiredoxin-1 was 6.33; in the data set with HCT-116 it was 6.64; in the data set with SW-620 [1] it was 6.55.
On to `CCOC(=O)C1(NC(=O)N[C@]2(C)CC[C@]3(C)CC[C@]4(C)C5=CC=C6C(=CC(=O)C(O)=C6C)[C@]5(C)CC[C@@]4(C)[C@@H]3C2)CC1`, for which the values for the pIC50 at Peroxiredoxin-1, with HCT-116 and in the data set with SW-620 [1] were 6.44, 6.19 and 6.46, respectively.
For the compound `COC(=O)CNC(=O)N[C@]1(C)CC[C@]2(C)CC[C@]3(C)C4=CC=C5C(=CC(=O)C(O)=C5C)[C@]4(C)CC[C@@]3(C)[C@@H]2C1`, the pIC50 at Peroxiredoxin-1 was 6.19; in the data set on HCT-116, 6.08; in the data set on SW-620 [1] it was 6.31.
As for `COC(=O)C1(NC(=O)N[C@]2(C)CC[C@]3(C)CC[C@]4(C)C5=CC=C6C(=CC(=O)C(O)=C6C)[C@]5(C)CC[C@@]4(C)[C@@H]3C2)COC1`, the pIC50 on Peroxiredoxin-1 was 6.42; in the data set with HCT-116 it was 6.10; in the data set with SW-620 [1], 6.41.
With `CC1=C(O)C(=O)C=C2C1=CC=C1[C@@]2(C)CC[C@@]2(C)[C@@H]3C[C@](C)(NC(=O)N[C@H](C)CO)CC[C@]3(C)CC[C@]12C`, the pIC50 on Peroxiredoxin-1 is 6.28; with HCT-116, 6.08; in the data set on SW-620 [1] it was 6.22.
The like results for `CC1=C(O)C(=O)C=C2C1=CC=C1[C@@]2(C)CC[C@@]2(C)[C@@H]3C[C@](C)(NC(=O)N[C@H]4CCOC4=O)CC[C@]3(C)CC[C@]12C` were, in that order, 6.48, 6.17 and 6.32.
As for `COC(=O)[C@H](Cc1ccc(O)cc1)NC(=O)N[C@]1(C)CC[C@]2(C)CC[C@]3(C)C4=CC=C5C(=CC(=O)C(O)=C5C)[C@]4(C)CC[C@@]3(C)[C@@H]2C1`, the pIC50 on Peroxiredoxin-1 was 6.38; in the data set on HCT-116, 6.37; with SW-620 [1] it was 6.66.
The like results for `CC1=C(O)C(=O)C=C2C1=CC=C1[C@@]2(C)CC[C@@]2(C)[C@@H]3C[C@](C)(NC(=O)NC(CO)CO)CC[C@]3(C)CC[C@]12C` were, in that order, 6.35, 5.57 and 5.72.
